Patent US10780101B2, “Amide derivatives of squalamine for the treatment of infections” (VIRBAC, priority 2016, dated 2020)
≈ marks a conversion by molar mass, not a printed value.

Legend:
[1] = test system: P. aeruginosa Human ATCC 27853; assay: MIC determination, P. aeruginosa human ATCC 27853; assay type: cell-based; details: Pseudomonas aeruginosa, ATCC27853; Gram-negative; Mueller-Hinton medium, 24 h at 37° C.
Protocol: (§1) A negative control (2 mL of sterile culture medium)
(§2) A positive control (1940 μL of culture medium+40 μL of DMSO+20 μL of the bacterial suspension) from a thawed biological strain (the biological strains are stored at −80° C. in glycerol).
(§3) The tubes were incubated at 37° C. for 24 hours at 100 rpm.
(§4) The microorganisms were handled under a type L2 laboratory fume cupboard and, before any handling, a UV cycle was programmed and only sterile material was used. […] The chemical compounds to be tested were prepared in a DMSO/methanol mixture (50/50) at a concentration of 5 mg/mL.
(§5) After 24 hours of incubation, a measurement of the optical density was taken using a spectrophotometer at 600 nm, collecting 100 μL of the bacterial suspension diluted in 900 μL of the sterile culture medium. This test required the use of a 96-well plate and the required volume of the microbial suspension to be seeded was calculated for an OD corresponding to a value equal to 0.01 in each well. In this plate, the first line corresponded to the negative control (195 μL of sterile culture medium in each well), the second line corresponded to the positive control (seeded culture medium supplemented with 2% of DMSO), and the third line was loaded twice with bacterial suspension; 8 μL of test product were placed in each well. Thereafter, a 0.5 cascade dilution was performed from this line.
(§6) The first column served as inhibition control. A sterile filter was then placed on the microplate, allowing the passage of gases but not of contaminants. The microplate was incubated at 37° C. under a humid atmosphere for 24 hours.
(§7) NB: The medium used is Mueller-Hinton (MH) medium for bacteria. All the tests were performed in duplicate.
(§8) After incubation, the filter was replaced with a transparent film, and an OD reading was then taken in an iEMS plate spectrophotometer at 620 nm. Calculation of the minimum inhibitory concentration (MIC) was performed.

[2] = test system: P. aeruginosa Animal (1051575); assay: MIC determination, P. aeruginosa animal (1051575); assay type: cell-based; details: Pseudomonas aeruginosa; Gram-negative; Mueller-Hinton medium, 24 h at 37° C.
Protocol: as §1, §2, §3, §4, §5, §6, §7, §8

[3] = test system: E. coli Human ATCC 28922; assay: MIC determination, E. coli human ATCC 28922; assay type: cell-based; details: Escherichia coli, ATCC28922; Gram-negative; Mueller-Hinton medium, 24 h at 37° C.
Protocol: as §1, §2, §3, §4, §5, §6, §7, §8

[4] = test system: E. coli Animal (1956); assay: MIC determination, E. coli animal (1956); assay type: cell-based; details: Escherichia coli; Gram-negative; Mueller-Hinton medium, 24 h at 37° C.
Protocol: as §1, §2, §3, §4, §5, §6, §7, §8

[5] = test system: S. aureus Human ATCC 25923; assay: MIC determination, S. aureus human ATCC 25923; assay type: cell-based; details: Staphylococcus aureus, ATCC25923; Gram-positive; Mueller-Hinton medium, 24 h at 37° C.
Protocol: as §1, §2, §3, §4, §5, §6, §7, §8

[6] = test system: S. intermedius Animal (1051997); assay: MIC determination, S. intermedius animal (1051997); assay type: cell-based; details: Staphylococcus intermedius; Gram-positive; Mueller-Hinton medium, 24 h at 37° C.
Protocol: as §1, §2, §3, §4, §5, §6, §7, §8

[7] = test system: S. aureus Animal (340); assay: MIC determination, S. aureus animal (340); assay type: cell-based; details: Staphylococcus aureus; Gram-positive; Mueller-Hinton medium, 24 h at 37° C.
Protocol: as §1, §2, §3, §4, §5, §6, §7, §8

[8] = test system: P. aeruginosa (1051575); assay: Potentiation of doxycycline activity (combination MIC); assay type: cell-based, Pseudomonas aeruginosa; details: for MIC - P. aeruginosa (1051575): content of compound of formula (I) to restore the doxycycline activity (at 2 μg/mL): in presence of doxycycline 2 μg/mL, 24 hours at 37° C.
[9] = test system: CHO-K1 cells; assay: WST1 cytotoxicity test on CHO-K1 cells; assay type: cell-based, Chinese hamster; details: Cricetulus griseus, CHO-K1, 24 h, read-out: IC50 (μg/mL) CHO
Protocol: Test WST1 was used to measure the cytotoxic activity of the products. This is a colorimetric test which makes it possible to measure the viability and the degree of cell proliferation. It is based on cleavage of the colorless tetrazolium salts WST-1 (4-[3-(4-iodophenyl)-2-(4-nitrophenyl)-2H-5-tetrazolio]-1,3-benzene disulfonate) with mitochondrial dehydrogenases to the yellow-colored formazan derivative, which may be quantified by spectrophotometry at 420-480 nm.
The WST1 test was performed on Chinese hamster ovary cells. The CHO-K1 cells (ATCC, USA) are kept in culture in McCoy's 5A medium supplemented with 10% fetal calf serum, 2 mM of L-glutamine and a mixture of penicillin-streptomycin (100 U/ml: 10 μg/ml). The culture is incubated at 37° C. under an atmosphere enriched in CO2 (5%), and subcultured every two days.
The cells are transferred into 96-well plates (25000 cells/mL) in whole McCoy's 5A medium, and maintained for 24 hours at 37° C. under a humid atmosphere enriched in CO2 (5%). Increasing concentrations of test products are added to the wells in double tests and 8 growth controls containing the cells in the medium alone are included in each series of tests. After 24 hours at 37° C. (5% CO2), the culture medium is removed, the cells are rinsed in phosphate buffer (PBS) and 50 μL of PBS containing 10% of reagent WST1 are added to each well. After 20 minutes of incubation at 37° C., the results are read by spectrophotometry at 450 nm.
The results are expressed in dose-response relationships, modeled by nonlinear regression analysis using the TableCurve software. The 50% inhibitory concentration (IC50) represents the concentration of product that is capable of reducing the cell viability by 50%.

[10] = test system: E. faecalis Human ATCC 29212; assay: MIC determination, E. faecalis human ATCC 29212; assay type: cell-based; details: Enterococcus faecalis, ATCC29212; Gram-positive; Mueller-Hinton medium, 24 h at 37° C.
Protocol: as §1, §2, §3, §4, §5, §6, §7, §8

Structure (SMILES)	MIC [1]	MIC [2]	MIC [3]	MIC [4]	MIC [5]	MIC [6]	MIC [7]	MIC - P. aeruginosa (1051575): content of compound of formula (I) to restore the doxycycline activity (at 2 μg/mL) [8]	IC50 [9]	MIC [10]	synergism when administered with doxycycline ([8]; doxycycline at 2 μg/mL)
CNC(=O)CC[C@@H](C)[C@H]1CCC2C3C(CC[C@@]21C)[C@@]1(C)CC[C@H](NCCCNCCCNCCCN)CC1C[C@H]3O (stereo partly drawn) [(10), 3β-norspermino-N-methylchenodeoxycholamide]	28 µg/mL (≈ 48.6 µM)	5 µg/mL (≈ 8.68 µM)	14 µg/mL (≈ 24.3 µM)	7 µg/mL (≈ 12.2 µM)	7 µg/mL (≈ 12.2 µM)	1 µg/mL (≈ 1.74 µM)	1 µg/mL (≈ 1.74 µM)	1 µg/mL	35 µg/mL (≈ 60.8 µM)	14 µg/mL (≈ 24.3 µM)	
CC(C)NC(=O)CC[C@@H](C)[C@H]1CCC2C3CCC4C[C@@H](NCCCNCCCNCCCN)CC[C@]4(C)C3CC[C@@]21C (stereo partly drawn) [(17), 3β-norspermino-N-isopropyllithocholamide]	64 µg/mL (≈ 109 µM)	32 µg/mL (≈ 54.4 µM)	16 µg/mL (≈ 27.2 µM)	32 µg/mL (≈ 54.4 µM)	8 µg/mL (≈ 13.6 µM)	4 µg/mL (≈ 6.8 µM)	8 µg/mL (≈ 13.6 µM)	2 µg/mL	17 µg/mL (≈ 28.9 µM)	8 µg/mL (≈ 13.6 µM)	
CC(C)NC(=O)CC[C@@H](C)[C@H]1CCC2C3CCC4C[C@@H](NCCNCCNCCNCCNCCN)CC[C@]4(C)C3CC[C@@]21C (stereo partly shown) [(24)]	128 µg/mL (≈ 203 µM)	128 µg/mL (≈ 203 µM)	32 µg/mL (≈ 50.6 µM)	64 µg/mL (≈ 101 µM)	8 µg/mL (≈ 12.7 µM)	4 µg/mL (≈ 6.33 µM)	8 µg/mL (≈ 12.7 µM)	8 µg/mL	35 µg/mL (≈ 55.4 µM)	16 µg/mL (≈ 25.3 µM)	
CC(C)NC(=O)CC[C@@H](C)[C@H]1CCC2C3C(C[C@H](O)[C@@]21C)[C@@]1(C)CC[C@H](NCCCN2CCN(CCCN)CC2)CC1C[C@H]3O (stereo partly shown) [(6)]	218 µg/mL (≈ 345 µM)	64 µg/mL (≈ 101 µM)	32 µg/mL (≈ 50.6 µM)	64 µg/mL (≈ 101 µM)	16 µg/mL (≈ 25.3 µM)	16 µg/mL (≈ 25.3 µM)	32 µg/mL (≈ 50.6 µM)	8 µg/mL	100 µg/mL (≈ 158 µM)	32 µg/mL (≈ 50.6 µM)	
CNC(=O)CC[C@@H](C)[C@H]1CCC2C3C(CC[C@@]21C)[C@@]1(C)CC[C@H](NCCCN2CCN(CCCN)CC2)CC1C[C@H]3O (stereo partly drawn) [(12), 3β-(1,4-bis(3-aminopropyl)piperazine)-N-methylchenodeoxycholamide]	60 µg/mL (≈ 102 µM)	30 µg/mL (≈ 51 µM)	30 µg/mL (≈ 51 µM)	15 µg/mL (≈ 25.5 µM)	8 µg/mL (≈ 13.6 µM)	2 µg/mL (≈ 3.4 µM)	4 µg/mL (≈ 6.8 µM)	8 µg/mL	50 µg/mL (≈ 85 µM)	15 µg/mL (≈ 25.5 µM)	
CC(C)NC(=O)CC[C@@H](C)[C@H]1CCC2C3C(C[C@H](O)[C@@]21C)[C@@]1(C)CC[C@H](NCCCNCCCCNCCCN)CC1C[C@H]3O (stereo partly drawn) [Compound (31), 3β-spermino-N-isopropylcholamide]	64 µg/mL (≈ 101 µM)	32 µg/mL (≈ 50.5 µM)	16 µg/mL (≈ 25.2 µM)	32 µg/mL (≈ 50.5 µM)	4 µg/mL (≈ 6.31 µM)	4 µg/mL (≈ 6.31 µM)	8 µg/mL (≈ 12.6 µM)	1 µg/mL	40 µg/mL (≈ 63.1 µM)	8 µg/mL (≈ 12.6 µM)	
CC(C)NC(=O)CC[C@@H](C)[C@H]1CCC2C3C(C[C@H](O)[C@@]21C)[C@@]1(C)CC[C@H](NCCCN(C)CCCN)CC1C[C@H]3O (stereo partly drawn) [(26), 3β-(bis(3-aminopropyl)methylamine)-N-isopropylcholamide]	112 µg/mL (≈ 194 µM)	56 µg/mL (≈ 97.1 µM)	28 µg/mL (≈ 48.5 µM)	56 µg/mL (≈ 97.1 µM)	28 µg/mL (≈ 48.5 µM)	14 µg/mL (≈ 24.3 µM)	28 µg/mL (≈ 48.5 µM)	4 µg/mL	80 µg/mL (≈ 139 µM)	56 µg/mL (≈ 97.1 µM)	
CC(C)NC(=O)CC[C@@H](C)[C@H]1CCC2C3C(CC[C@@]21C)[C@@]1(C)CC[C@H](NCCCN(CCCN)CCCN)CC1C[C@@H]3O (stereo partly drawn) [(48), 3β-(tris(3-aminopropyl)amine)-N-isopropylursodeoxycholamide]	120 µg/mL (≈ 199 µM)	120 µg/mL (≈ 199 µM)	> 120 µg/mL	120 µg/mL (≈ 199 µM)	30 µg/mL (≈ 49.7 µM)	8 µg/mL (≈ 13.2 µM)	15 µg/mL (≈ 24.8 µM)	4 µg/mL	42 µg/mL (≈ 69.5 µM)	60 µg/mL (≈ 99.3 µM)	
CC(C)NC(=O)CC[C@@H](C)[C@H]1CCC2C3CCC4C[C@@H](NCCCNCCCCNCCCN)CC[C@]4(C)C3CC[C@@]21C (stereo partly drawn) [Compound (36), 3β-spermino-N-isopropyllithocholamide]	15 µg/mL (≈ 24.9 µM)	30 µg/mL (≈ 49.8 µM)	7.5 µg/mL (≈ 12.5 µM)	15 µg/mL (≈ 24.9 µM)	3.75 µg/mL (≈ 6.23 µM)	1.87 µg/mL (≈ 3.11 µM)	3.75 µg/mL (≈ 6.23 µM)	0.5 µg/mL	36 µg/mL (≈ 59.8 µM)	7.5 µg/mL (≈ 12.5 µM)	noteworthy synergism
CC(C)NC(=O)CC[C@@H](C)[C@H]1CCC2C3CCC4C[C@@H](NCCCNCCCCNCCCN)CC[C@]4(C)C3C[C@H](O)[C@@]21C (stereo partly drawn) [(30), 3β-spermino-N-isopropyldeoxycholamide]	4 µg/mL (≈ 6.47 µM)	4 µg/mL (≈ 6.47 µM)	15 µg/mL (≈ 24.3 µM)	30 µg/mL (≈ 48.5 µM)	8 µg/mL (≈ 12.9 µM)	1 µg/mL (≈ 1.62 µM)	8 µg/mL (≈ 12.9 µM)	1 µg/mL	30 µg/mL (≈ 48.5 µM)	15 µg/mL (≈ 24.3 µM)	
CC(C)N(C(=O)CC[C@@H](C)[C@H]1CCC2C3C(CC[C@@]21C)[C@@]1(C)CC[C@H](NCCCNCCNCCCN)CC1C[C@H]3O)C(C)C (stereo partly drawn) [(54), 3β-(bis(3-aminopropyl)ethylenediamine)-N,N-diisopropylchenodeoxycholamide]	32 µg/mL (≈ 50.6 µM)	16 µg/mL (≈ 25.3 µM)	125 µg/mL (≈ 198 µM)	8 µg/mL (≈ 12.7 µM)	4 µg/mL (≈ 6.33 µM)	2 µg/mL (≈ 3.16 µM)	4 µg/mL (≈ 6.33 µM)	2 µg/mL	22 µg/mL (≈ 34.8 µM)	2 µg/mL (≈ 3.16 µM)	
CC(C)NC(=O)CC[C@@H](C)[C@H]1CCC2C3CCC4C[C@@H](NCCCN(C)CCCN)CC[C@]4(C)C3CC[C@@]21C (stereo partly drawn) [(29), 3β-(bis(3-aminopropyl)methylamine)-N-isopropyllithocholamide]	112 µg/mL (≈ 206 µM)	112 µg/mL (≈ 206 µM)	28 µg/mL (≈ 51.4 µM)	28 µg/mL (≈ 51.4 µM)	14 µg/mL (≈ 25.7 µM)	7 µg/mL (≈ 12.8 µM)	14 µg/mL (≈ 25.7 µM)	7 µg/mL	6 µg/mL (≈ 11 µM)	28 µg/mL (≈ 51.4 µM)	
